In patent US20250213560A1, “NITROGEN-CONTAINING HETEROCYCLIC COMPOUNDS HAVING PHENYL GROUP AND USES THEREOF” (BNH RESEARCH CO., LTD., priority 2022, published 2025):

Key:
GluN2B = GluN2B protein expression by Western blot in primary cortical neuron cells; format: cell-based, mouse; settings: for GluN2B expression effect (in words): compared to vehicle / other compounds, Table 5; for Western blot results Mean (GluN2B expression): relative value, vehicle set to 1, primary cortical neurons treated for 24 hours
Method: Meanwhile, primary cortical neuron cells were isolated from cerebral cortices of 18-day-old mouse fetuses, incubated in prep media (composition (mM): NaCl 107.5, NaH2PO4 1, NaHCO333.5, glucose 11, HEPS 1%, penicillin-streptomycin 1%) containing 0.25% trypsin and DNasel for 30 minutes, dissociated into single cells, and seeded. Primary cortical neuron cells were grown in Neurobasal medium supplemented with 1% (v/v) B27, 1% penicillin (100 U/mL), streptomycin ([…]), and 1% Glutamax. Cells were maintained in a humidified atmosphere of 95% air and 5% CO2 at 37° C. Drug efficacy was evaluated after culturing primary cortical neuron cells for 14 days.
The amount of GluN2B reacted with the compound of the present disclosure was measured using Western blot. The fetal cerebral cortex was extracted from mice at 17 days of gestation, dissociated into single cells, cultured for 13 days, and treated with BnH drugs for 24 hours. The drug-treated cells were subjected to protein lysate preparation using RIPA protein lysis buffer containing protease and phosphatase inhibitors. The protein concentration was determined using a BCA protein assay kit (Pierce Biotechnology) using bovine serum albumin as a standard. Equal amounts of protein (20 μg per lane) were separated by electrophoresis on SDS-polyacrylamide gels at 90 V for 2 hours, then transferred from the SDS-polyacrylamide gel to PVDF membrane at 100 V for 1 hour. Then, primary reaction with GluN2B antibody (ab65783, Abcam) was performed at 4° C. for 1 day, washed three times at 10-minutes intervals with 1×PBT, and secondary reaction was performed with anti-mouse antibody (sc-2357, Santa Cruz) for 1 hour, followed by washing three times at 10-minutes intervals with 1×PBT. Western blotting was performed as described above to confirm GluN2B protein expression. Subsequently, each blot was re-probed using anti-β-actin antibody (sc-47778, Santa Cruz). Housekeeping protein B-actin was detected as a normalization control.
The increase and decrease of BnH12 series were confirmed by setting the vehicle to 1 (N for each group was 3 or more).
Using the experimental procedure described in Example 3, it was determined whether various BnH12 series compounds increase GluN2B expression, and the results are shown in Table 5. These in vitro experimental results are expressed as relative values to the group (vehicle) that was not treated with the compound, with the effect of the group set to 1.

293T cells = assay: Cytotoxicity test (CCK-8 cell viability) in 293T cells; format: cell-based, human; settings: 293T cell line
Method: Human undifferentiated neuroblastoma cell line SH-SY5Y and human embryonic kidney cell line (HEK)-293T were purchased from Korean Cell Line Bank (Korea) and Takara (Japan), respectively. Cells were grown in HyClone Minimal Essential Medium (MEM) and Dulbecco's Modified Eagle Medium (DMEM), respectively, supplemented with 10% (v/v) fetal bovine serum (FBS), penicillin (100 U/mL), and streptomycin ([…]). Cells were maintained in a humidified atmosphere of 95% air and 5% CO2 at 37° C. Cells were passaged 10 times at maximum. Cells were dissociated using 0.05% trypsin-EDTA solution and the cells were seeded in new culture dishes for maintenance.
To examine the cytotoxicity of compounds described herein in human cell lines, SH-SY5Y and 293T cells were used. Approximately 8,000 cells (for 293T) and 15,000 cells (for SH-SY5Y) were plated per well of a 96-well plate (SPL Life Sciences Co., Ltd., Pocheon, Korea). After incubating at 37° C. for 24 hours in a humidified atmosphere containing 5% CO2, the culture medium was replaced by a series of concentrations of test compounds diluted in the corresponding culture medium.
The time of co-incubation was 24 hours and six replicates were made for each measurement. Finally, 10 μL of CCK-8 reagent (Dojindo Laboratories, Rockville, MD) was added to each well, and after incubation at 37° C. for 3 minutes, the OD at 450 nm was measured using a multifunction microplate reader (Tecan Infinite M200 Pro). These measurements were compared to that of a control and expressed as a percentage of the control to calculate cell viability. The IC50 value was calculated using SPSS software. To do this, the absorbance of the blank wells with only growth medium is subtracted from the values or the wells with cells. The readout value of background (vehicle) was set as a 100% viability, and then the percent viability for each test solution was calculated.
The data was presented as the mean value and standard error of the mean (S.E.M.). Statistical analysis was performed with the one-way ANOVA with Tukey's post hoc test (GraphPad Prism 5 software package, version 5.02, GraphPad Software Inc. USA). Significance was accepted at p<0.05.
The cytotoxicity of the compound was evaluated by treating cells with BnH12003 and measuring cell viability.
By treating cells with various BnH12 series compounds and measuring cell viability using the experimental procedure described in Example 2, the cytotoxicity of the compounds was evaluated.

Compound | GluN2B expression effect (in words) (GluN2B) | Western blot results Mean (GluN2B expression) (GluN2B) | Cell viability test results (CCK) 10 uM (293T cells) [%<] | Cell viability test results (CCK) 100 uM (293T cells) [%<]
6-Ethyl-1-(2-(4-(pyrimidin-5-yl)phenyl) acetyl) piperidine-3-carboxylic acid [BnH12097] | excellent effects | 2.625 | 90 | 85
O=C(NO)[C@@H]1CCCN1C(=O)Cc1ccc(-c2cncnc2)cc1 [BnH12017, (S)-N-hydroxy-1-(2-(4-(pyrimidin-5-yl)phenyl)acetyl)pyrrolidine-2-carboxamide] |  | 1.448 | 95 | 80
C[C@H]1CC[C@@H](C(=O)O)CN1C(=O)Cc1ccc(-c2ccnnc2)cc1 [BnH12045, (3R,6S)-6-methyl-1-(2-(4-(pyridazin-4-yl)phenyl)acetyl) piperidine-3-carboxylic acid] |  | 1.341 | 99 | 99
C[C@H]1CC[C@@H](C(=O)O)CN1C(=O)Cc1ccc(-c2cccnc2)cc1 [BnH12046, (3R,6S)-6-methyl-1-(2-(4-(pyridin-3-yl)phenyl)acetyl) piperidine-3-carboxylic acid] | excellent effects | 2.102 | 95 | 90
C[C@H]1CC[C@@H](C(=O)O)CN1C(=O)Cc1ccc(-c2cnccn2)cc1 [BnH12047, (3R,6S)-6-methyl-1-(2-(4-(pyrazin-2-yl)phenyl)acetyl) piperidine-3-carboxylic acid] |  | 1.554 | 99 | 99
C[C@H]1CC[C@@H](C(=O)O)CN1C(=O)Cc1ccc(-c2ncccn2)cc1 [BnH12048, (3R,6S)-6-methyl-1-(2-(4-(pyrimidin-2-yl)phenyl)acetyl) piperidine-3-carboxylic acid] |  | 1.071 | 95 | 80
C[C@H]1CC[C@@H](C(=O)O)CN1C(=O)Cc1ccc(-c2nccn2C)cc1 [BnH12053, sodium (3R,6S)-6-methyl-1-(2-(4-(1-methyl-1H-imidazol-2-yl)phenyl)acetyl) piperidine-3-carboxylate] |  | 1.652 | 95 | 95
C[C@H]1CC[C@@H](C(=O)O)CN1C(=O)Cc1ccc(-c2cnco2)cc1 [BnH12057, (3R,6S)-6-methyl-1-(2-(4-(oxazol-5-yl)phenyl)acetyl) piperidine-3-carboxylic acid] | excellent effects | 2.241 | 95 | 55
C[C@H]1CC[C@@H](C(N)=O)CN1C(=O)Cc1ccc(-c2ncccn2)cc1 [BnH12058, (3R,6S)-6-methyl-1-(2-(4-(pyrimidin-2-yl)phenyl)acetyl) piperidine-3-carboxamide] |  | 1.54 | 99 | 90
C[C@@H]1CC[C@H](C(=O)O)CN1C(=O)Cc1ccc(-c2cccnc2)cc1 [BnH12066, (3S,6R)-6-methyl-1-(2-(4-(pyridin-3-yl)phenyl)acetyl) piperidine-3-carboxylic acid] |  | 1.514 | 99 | 90
C[C@@H]1CC[C@H](C(=O)O)CN1C(=O)Cc1ccc(-c2cnccn2)cc1 [BnH12067, (3S,6R)-6-methyl-1-(2-(4-(pyrazin-2-yl)phenyl)acetyl) piperidine-3-carboxylic acid] | excellent effects | 2.565 | 99 | 85
C[C@@H]1CC[C@H](C(=O)O)CN1C(=O)Cc1ccc(-c2cncnc2)cc1 [BnH12071, (3S,6R)-6-methyl-1-(2-(4-(pyrimidin-5-yl)phenyl)acetyl) piperidine-3-carboxylic acid] |  | 1.799 | 80 | 75
C[C@H]1CC[C@@H](C(=O)O)CN1C(=O)Cc1ccc(-c2cccc([N+](=O)[O-])c2)cc1 [BnH12072, (3R,6S)-6-methyl-1-(2-(3′-nitro-8 1,l′-biphenyl9-4-yl)acetyl) piperidine-3-carboxylic acid] |  | 1.822 | 90 | 80
C[C@H]1CC[C@@H](C(=O)O)CN1C(=O)Cc1cccc(-c2ccccc2)c1 [BnH12078] |  | 1.017 | 90 | 75
C[C@H]1CC[C@@H](C(=O)O)CN1C(=O)c1ccc(-c2cccnc2)cc1 [BnH12080, (3R,6S)-6-methyl-1-(4-(pyridin-3-yl)benzoyl) piperidine-3-carboxylic acid] |  |  | 85 | 85
COc1ccc(-c2ccc(CC(=O)N3C[C@H](C(=O)O)CC[C@@H]3C)cc2)cn1 [BnH12081, (3R,6S)-1-(2-(4-(6-methoxypyridin-3-yl)phenyl)acetyl)-6-methylpiperidine-3-carboxylic acid] |  |  | 85 | 70
C[C@H]1CC[C@@H](C(=O)O)CN1C(=O)Cc1ccc(-c2ccc(C3CC3)nc2)cc1 [BnH12082, (3R,6S)-1-(2-(4-(6-cyclopropylpyridin-3-yl)phenyl)acetyl)-6-methylpiperidine-3-carboxylic acid] |  |  | 90 | 90
C[C@H]1CC[C@@H](C(=O)O)CN1C(=O)Cc1ccc(-c2ccc(C(F)(F)F)nc2)cc1 [BnH12083, (3R,6S)-6-methyl-1-(2-(4-(6-(trifluoromethyl)pyridin-3-yl)phenyl)acetyl) piperidine-3-carboxylic acid] |  |  | 95 | 75
Cc1ccc(-c2ccc(CC(=O)N3C[C@H](C(=O)O)CC[C@@H]3C)cc2)cn1 [BnH12084, (3R,6S)-6-methyl-1-(2-(4-(6-methylpyridin-3-yl)phenyl)acetyl) piperidine-3-carboxylic acid] |  |  | 80 | 70
C[C@H]1CC[C@@H](C(=O)O)CN1C(=O)Cc1ccc(-c2ccc(-c3ccccc3)nc2)cc1 [BnH12087, (3R,6S)-6-methyl-1-(2-(4-(6-phenylpyridin-3-yl)phenyl)acetyl) piperidine-3-carboxylic acid] |  |  | 85 | 45
